Data reported in paper PMC6264295, “Studies on Log Po/w of Quinoxaline di-N-Oxides: A Comparison of RP-HPLC Experimental and Predictive Approaches” (Molecules, 2011).

Columns and labels:
[1] = RP-HPLC determination of capacity factors and log Po/w (Supelcosil LC-ABZ, MOPS buffer pH 7.4/methanol); conditions: for log k’0: capacity factor extrapolated to 0% methanol; for RP-HPLC log Po/w: from log k’0 by Equation (1); for Capacity factors log k’40: 40% methanol; for Capacity factors log k’40 / Capacity factors log k’50 / Capacity factors log k’60 / Capacity factors log k’70: MOPS buffer pH 7.4; for Capacity factors log k’50: 50% methanol; for Capacity factors log k’60: 60% methanol; for Capacity factors log k’70: 70% methanol; for Capacity factors log k’0: extrapolated to 0% methanol; for chromatographic logP: pH 7.4, RP-HPLC log Po/w
Experimental: The RP-HPLC methods of Minick and Lombardo [53] were considered for estimating the n-octanol/water partition coefficients (log Po/w) of QdO. The inorganic salts and the reference compounds were, at least, of analytical grade (Sigma Aldrich and Fluka) and used without further purification. HPLC-grade methanol, n-octanol (Sigma-Aldrich) and bi-distilled water were used to prepare the mobile phase.
The other chromatographic conditions were: flow 1.0 mL/min^−1; isocratic elution, UV-visible detector set at the wavelength with maximum absorbance (260 and 210 nm). The test solutions were 0.3 mM in the desired compound. All the experiments were performed at 25 ± 2 °C at least twice.
The capacity factors were calculated according to Equation (2): […]
In order to judge if the experimentally measured log k’0 can be used to predict the log Po/w value, a calibration curve was created with the capacity factors of the reference compounds and a linear regression equation between the log Po/w and log k’0 was determined.
The robustness of the model and its predictivity were evaluated by the leave-one-out (LOO) cross-validation procedure. According to this procedure, the log Po/w value of each compound in the reference data set is predicted by the equations derived from all the other compounds except the predicted one. At the end of this procedure two values are available for each reference compound, the reference shake-flask log Po/w value (yi) and the predicted one (ŷi). […] The regression coefficient (R^2LOO) is defined by Equation (5): [drawing 8] (5) where [drawing 9] is the mean of the reference shake-flask log Po/w value and n is the number of reference compounds. A high value of R^2LOO indicates a good predictive ability of the model. The root mean squared error in prediction (RMSELOO) is calculated with Equation (6): [drawing 10] (6)

[2] = reference compounds; reference values; ref OECD Guidelines [39]; cited from earlier work
[3] = parameters: method as in earlier work; conditions: reduction peak potential; cited from earlier work
[4] = reference compounds, leave-one-out cross-validation

Compound | log k’0 ([1]; reference compounds, pH 7.4) | RP-HPLC log Po/w ([1]; reference compounds) | LOO-predicted RP-HPLC log Po/w [1, 4] | log Po/w [2] | LOO-predicted RP-HPLC log Po/w ([1]; pH 7.4) | Capacity factors log k’40 [1] | Capacity factors log k’50 [1] | Capacity factors log k’60 [1] | Capacity factors log k’70 [1] | Capacity factors log k’0 ([1]; pH 7.4) | chromatographic logP [1] | Epc,1 [3]
CCC(C)=O [Compound 1, 2-Butanone, reference compound] | −0.06 | 0.21 | 0.15 | 0.3 |  |  |  |  |  |  |  | 
Nc1ccccc1 [Compound 2, Aniline, reference compound] | 0.67 | 0.94 | 0.96 |  |  |  |  |  |  |  |  | 
CC(=O)Nc1ccccc1 [Compound 3, Acetanilide, reference compound] | 0.88 | 1.15 |  |  | 1.19 |  |  |  |  |  |  | 
CC(=O)c1ccccc1 [Compound 4, Acetophenone, reference compound] | 1.27 | 1.54 |  |  | 1.52 |  |  |  |  |  |  | 
c1ccccc1 [Compound 5, Benzene, reference compound] | 1.87 | 2.14 |  |  |  |  |  |  |  |  |  | 
Clc1ccccc1 [Compound 6, Chlorobenzene, reference compound] | 2.62 | 2.89 | 2.90 |  |  |  |  |  |  |  |  | 
Brc1ccccc1 [Compound 7, Bromobenzene, reference compound] | 2.84 |  |  |  |  |  |  |  |  |  |  | 
c1ccc2ccccc2c1 [Compound 8, Naphthalene, reference compound] | 3.15 | 3.42 |  |  |  |  |  |  |  |  |  | 
Cc1c(C(=O)NCc2ccccc2)[n+]([O-])c2ccccc2[n+]1[O-] [Compound 10] |  |  |  |  |  | 0.28 | −0.05 | −0.34 | −0.64 | 1.49 | 1.76 | 
Cc1ccc2c(c1)[n+]([O-])c(C(=O)NCc1ccccc1)c(C)[n+]2[O-] [Compound 11] |  |  |  |  |  | 0.35 | 0.07 | −0.24 | −0.56 | 1.58 | 1.85 | −1.658
Cc1c(C(=O)NCc2ccccc2)[n+]([O-])c2cc(Cl)ccc2[n+]1[O-] [Compound 12] |  |  |  |  |  | 0.65 | 0.30 | −0.05 | −0.36 | 1.98 | 2.25 | −1.482
Cc1c(C(=O)NCc2ccccc2)[n+]([O-])c2cc(Cl)c(Cl)cc2[n+]1[O-] [Compound 13] |  |  |  |  |  | 0.98 | 0.66 | 0.27 | −0.11 | 2.46 | 2.72 | −1.211
Cc1c(C(=O)NCCc2ccccc2)[n+]([O-])c2ccccc2[n+]1[O-] [Compound 14] |  |  |  |  |  | 0.36 | 0.05 | −0.26 | −0.58 | 1.61 | 1.88 | −1.625
Cc1ccc2c(c1)[n+]([O-])c(C(=O)NCCc1ccccc1)c(C)[n+]2[O-] [Compound 15] |  |  |  |  |  | 0.47 | 0.21 | −0.13 | −0.45 | 1.73 | 2 | −1.649
Cc1c(C(=O)NCCc2ccccc2)[n+]([O-])c2cc(Cl)ccc2[n+]1[O-] [Compound 16] |  |  |  |  |  | 0.69 | 0.36 | 0.00 | −0.37 | 2.11 | 2.38 | −1.525
Cc1c(C(=O)NCCc2ccccc2)[n+]([O-])c2cc(Cl)c(Cl)cc2[n+]1[O-] [Compound 17] |  |  |  |  |  | 1.07 | 0.74 | 0.34 | −0.06 | 2.60 | 2.87 | −1.387
Cc1c(C(=O)NCc2ccc(Br)cc2)[n+]([O-])c2ccccc2[n+]1[O-] [Compound 18] |  |  |  |  |  | 0.85 | 0.48 | 0.11 | −0.24 | 2.30 | 2.57 | −1.540
Cc1ccc2c(c1)[n+]([O-])c(C(=O)NCc1ccc(Br)cc1)c(C)[n+]2[O-] [Compound 19] |  |  |  |  |  | 0.94 | 0.60 | 0.21 | −0.16 | 2.43 | 2.69 | −1.580
Cc1c(C(=O)NCc2ccc(Br)cc2)[n+]([O-])c2cc(Cl)ccc2[n+]1[O-] [Compound 20] |  |  |  |  |  | 1.22 | 0.84 | 0.42 | 0.02 | 2.83 | 3.09 | −1.445
Cc1c(C(=O)NCc2ccc(Br)cc2)[n+]([O-])c2cc(Cl)c(Cl)cc2[n+]1[O-] [Compound 21] |  |  |  |  |  | 1.60 | 1.15 | 0.65 | 0.19 | 3.51 | 3.78 | −1.363
Cc1ccc(CNC(=O)c2c(C)[n+]([O-])c3ccccc3[n+]2[O-])cc1 [Compound 22] |  |  |  |  |  | 0.62 | 0.25 | −0.10 | −0.44 | 2.02 | 2.29 | −1.580
Cc1ccc(CNC(=O)c2c(C)[n+]([O-])c3ccc(C)cc3[n+]2[O-])cc1 [Compound 23] |  |  |  |  |  | 0.66 | 0.34 | −0.01 | −0.36 | 2.02 | 2.29 | −1.590
Cc1ccc(CNC(=O)c2c(C)[n+]([O-])c3ccc(Cl)cc3[n+]2[O-])cc1 [Compound 24] |  |  |  |  |  | 0.93 | 0.54 | 0.15 | −0.25 | 2.51 | 2.77 | −1.489
Cc1ccc(CNC(=O)c2c(C)[n+]([O-])c3cc(Cl)c(Cl)cc3[n+]2[O-])cc1 [Compound 25] |  |  |  |  |  | 1.33 | 0.93 | 0.54 | 0.14 | 2.91 | 3.18 | 
Cc1c(C(=O)NCC(c2ccccc2)c2ccccc2)[n+]([O-])c2ccccc2[n+]1[O-] [Compound 26] |  |  |  |  |  | 1.06 | 0.62 | 0.14 | −0.33 | 2.92 | 3.18 | −1.591
Cc1ccc2c(c1)[n+]([O-])c(C(=O)NCC(c1ccccc1)c1ccccc1)c(C)[n+]2[O-] [Compound 27] |  |  |  |  |  | 1.21 | 0.80 | 0.33 | −0.12 | 3.02 | 3.28 | −1.640
Cc1c(C(=O)NCC(c2ccccc2)c2ccccc2)[n+]([O-])c2cc(Cl)ccc2[n+]1[O-] [Compound 28] |  |  |  |  |  | 1.38 | 0.91 | 0.38 | −0.13 | 3.42 | 3.69 | −1.491
Cc1c(C(=O)NCC(c2ccccc2)c2ccccc2)[n+]([O-])c2cc(Cl)c(Cl)cc2[n+]1[O-] [Compound 29] |  |  |  |  |  | 1.78 | 1.31 | 0.76 | 0.25 | 3.86 | 4.12 | −1.410
